The subject of one data set is A549. Kind of data set: MTT cytotoxicity assay. The class given is cell-based, human. Conditions: 48 h drug exposure. How it is done: (§1) The results reveal that the steric hindrance plays a significant role in the cytotoxicity of complex 3.
(§2) The effects of complex 3 on the viability of NSCLC cancer cells including A549 and NCI-H1299 were detected respectively via MTT assays at time points of 12, 24, 48 and 72 h (Figure 2A). The results shown that complex 3 could inhibit the viability of the NSCLC cells.
(§3) Human cancer cell lines HepG2, SGC-7901, HCT-116, A549, NCI-H1299 and MCF-7 as well as normal liver cell line L02 were purchased from the Cell Bank of Shanghai Institute of Cell Biology. Among them, MCF-7, HepG2 cells were cultured at 37 °C in 5% CO2 with DMEM supplemented with 10% fetal bovine serum (FBS) (Hyclone, Lifescience, USA) and 1% penicillin/streptomycin (Beyotime, Nantong, China), while HCT-116, SGC-7901, A549, NCI-H1299 and L02 cells were cultured at 37 °C in 5% CO2 with RPMI-1640 supplemented with 10% FBS and 1% penicillin/streptomycin. Cells were passed every 2 days and restarted from frozen stocks upon reaching pass number 20.
(§4) In vitro cytotoxicity of the platinum compounds against human hepatocellular carcinoma (HepG-2), gastric carcinoma (SGC-7901), non-small-cell lung cancer (A549), and colorectal cancer (HCT-116) cell lines were measured by the MTT assays. Briefly, the cells were seeded in 96-well cultured plates at a density of 5000 cells/well. After overnight incubation (16 h), the cells were treated with the platinum complexes. After 48 h of incubation, 10 μL of a freshly diluted 3-(4,5-dimethyl-2-thiazolyl)-2,5-diphenyl-2H-tetrazolium bromide (MTT) solution (5 mg/mL) were added to each well and the plates were incubated at 37 °C in a humidified 5% CO2 atmosphere for 4 h. At the end of the incubation period the medium was removed and the formazan product was dissolved in 150 μL of DMSO. The cell viability was evaluated by measurement of the absorbance at 490 nm, using an Absorbance Reader (BioRad). IC50 values (compound concentration that produces 50% of cell growth inhibition) were calculated from curves constructed by plotting cell survival inhibitory rate (%) versus drug concentration logarithm. All experiments were repeated in three times. The reading values were converted to the percentage of control (% cell survival). Cytotoxic effects were expressed as IC50 values.
On the technique in general: Formazan colour is commonly taken as a measure of viable cells.

The subject of a further data set is NCI-H1299. Kind of data set: MTT cytotoxicity assay. The class given is cell-based, human. How it is done: as §1, §2, §3, §4
Data set [1] has as its system A549 cells. The experiment in a line: Annexin V-FITC/PI apoptosis assay (flow cytometry). Type of data set: cell-based, human. Conditions: A549, 50 μM for 24 h (figure legend and method: 10 μM). How it is done:
(§5) Apoptosis is a crucial programmed death form of aging or damaged cells. […] To further explore the impact of complex 3 on long-term clonogenic survival, colony formation assay was performed.
(§6) Annexin V-FITC apoptosis detection kit (Keygen, Jiangsu, China) assay was performed according to the manufacturer's protocol. […] Then the cells were collected, resuspended in binding buffer (pH 7.5, 10 mM HEPES, 2.5 mM CaCl2 and 140 mM NaCl), incubated with Annexin V-FITC and then PI for 10 min in the dark at room temperature, the processed cells were analyzed by flow cytometry (FACSCalibur, Becton Dickinson) and a computer station running Cell-Quest software. (BD Biosciences, Franklin Lakes, NJ).
(In general: In flow cytometry, cells or beads pass a laser one at a time.)

The subject of data set [2] is NCI-H1299 cells. Kind of data set: Annexin V-FITC/PI apoptosis assay (flow cytometry). The class given is cell-based, human. To be noted: NCI-H1299, 50 μM for 24 h (figure legend and method: 10 μM). How it is done: as §5, §6
Data set [3] concerns A549 cells. The experiment in a line: Cell-cycle analysis (PI staining, flow cytometry). Type of data set: cell-based, human. To be noted: A549, 10 μM. How it is done: (§7) With the untreated A549 and NCI-H1299 cells, the percentage of cells in the G1 phase was at 21.29%, 18.96% with 15.28%, 22.94% in the G2/M phase, respectively.
(§8) Cell cycle was analyzed by flow cytometry as described previously. Data were analyzed with FlowJo software (TreeStar, Inc.).

The test system of data set [4] is NCI-H1299 cells. Kind of data set: Cell-cycle analysis (PI staining, flow cytometry). The class given is cell-based, human. To be noted: NCI-H1299, 10 μM. How it is done:
as §7, §8

For another data set, the system named is A549 xenograft tumors. Conditions: for tumor growth inhibition rate: 5 mg/kg i.v., complex 3 once every three days, oxaliplatin twice a week, tumor weight at end. How it is done: To evaluate the anti-tumor effect of complex 3 in vivo, an xenografts nude mice model of A549 cancer cells was performed. […] At the end of treatments, the tumor weight was measured to detect the antitumor activity of these measured groups. […] Because platinum-based drugs are well known for their toxic effects on the mean bodyweights of treated animals, the toxicity of complex 3 in the body weights of mice was assayed. […] The mice treated with the tested complex 3 were selected for histological analyses.
Thirty-five nude mice (BALB/c) with body weight range from 18–22 g, were supplied by Shanghai Laboratory Animal Center, China Academy of Sciences. Experimental protocols were in accordance with National Institutes of Health regulations and approved by the Institutional Animal Care and Use Committee. All animals were randomly divided into 5 groups. The A549 single-cell suspension in PBS (1×10^7 cells per mouse) was injected subcutaneously into the right oxter of nude mice. […] The control group was administered glucose. The tumor growth was monitored by measuring the perpendicular diameter of the tumor using calipers every two days and calculated according to the formula:
Tumor volume (mm^3) = 0.5 × length × width^2
Growth curves were plotted using the average tumor volume within each experimental group at the set time points. The whole group of mice was sacrificed after the last treatment, then tumor weight was evaluated as the antitumor activity of the corresponding groups, and the kidneys, livers and tumors were excised for immunohistochemistry analysis. The body weight and physical state of the mice were measured simultaneously as an indicator of systemic toxicity.

Data set [5] in a line: Blood stability test with rat plasma (ICP-MS). Conditions: 37°C, 10 μM (method: 50 μM). Type of data set: in vitro ADME. How it is done: Thus, we investigated the stability of complex 3 in rat plasma via ICP-MS measurement. Fresh rat plasma was added with a DMSO solution of complex 3 (10 μM). After incubation for 0, 2, 4 and 8 h at 37°C, the Pt content in rat plasma was measured by ICP-MS. […] This interaction contributes to the promising stability of complex 3 in rat plasma.
At varying time points (0, 2, 4 and 8 h) at 37°C, a 300 μL aliquot was removed from the incubating blood. The ICP-MS measurement was served to confirm the blood stability of complex 3 in rat plasma.

The mark [6] stands for this setting: 48 h drug exposure, read-out: IC50 NCI-H1299.

Molecules are shown by their SMILES. Read-outs that look alike come from different tables or passages of the source.

By IC50 is commonly meant the midpoint of a concentration-inhibition curve.

For the molecule `CC(C)C[NH+]1[C@@H]2CCCC[C@H]2[NH+](CC(C)C)[Pt-2]12[O]C(=O)CC(=O)[O]2` (some centres unmarked) [Complex 3], the IC50 in the data set with A549 was determined as 14.2 ± 1.22 µM; in the data set with NCI-H1299 (24 h, 2 to 128 μM, read-out: IC50 NCI-H1299 exposed for 24 h), 7.42 µM; with NCI-H1299 (setting [6]), 20.9 ± 1.36 µM. For the same molecule, the “early and median apoptotic cells” value is listed as 0.94% in the data set on A549 cells [1] and 9.77% in the data set on NCI-H1299 cells [2]. In the data set with NCI-H1299 cells [2], this molecule yielded a late apoptotic cells of 27.51%. The “cell cycle phase blocked” value was “G2/M phases of A549 and NCI-H1299 were blocked strikingly” in the data set with A549 cells [3]; “G2/M phases of A549 and NCI-H1299 were blocked strikingly” in the data set with NCI-H1299 cells [4]. Also, the “percentage of cells in the G1 phase” value with NCI-H1299 cells [4] (72 h, untreated 18.96%) came to 60.29%. In addition, the tumor volumes entry with A549 xenograft tumors (5 mg/kg i.v. once every three days) was “significantly decreased”. The “tumor growth inhibition rate” value in the data set on A549 xenograft tumors is recorded as 67.96%. The “expressions of LC3 in tumor tissues” value in the data set with A549 xenograft tumors (immunoblotting) is “increased expressions of LC3 in tumor tissues”. For the same molecule, the “bodyweights of mice during treatment” value with A549 xenograft tumors (mouse, in vivo) is on record as “increase of bodyweights”. For the same molecule, the “t1/2 in rat plasma (stability)” value in data set [5] came to 27.6 h.
For `O=C1[O][Pt]2([NH][C@@H]3CCCC[C@H]3[NH]2)[O]C1=O` [Oxaliplatin, oxaliplatin, reference compound], the IC50 in the data set on A549 amounted to 112 ± 11.3 µM; in the data set with NCI-H1299 (setting [6]), 62.4 ± 2.35 µM. Further, the results for the “early and median apoptotic cells” value with A549 cells [1] and with NCI-H1299 cells [2] were 29.50% and 10.27%, respectively. In the data set on NCI-H1299 cells [2], the late apoptotic cells came out at 15.98%. The “cell cycle phase blocked” value in the data set on A549 cells [3] and in the data set on NCI-H1299 cells [4] was “S phases were blocked” each time. The “tumor growth inhibition rate” value in the data set on A549 xenograft tumors was 34.48%. In addition, the “t1/2 in rat plasma (stability)” value in data set [5] was ~ 13.1 h.

The values above are taken from article PMC5458179, “Oxidative DNA double strand breaks and autophagy in the antitumor effect of sterically hindered platinum(II) complexes in NSCLCs” (Oncotarget, 2017).
